Read-outs that look alike come from different tables or passages of the source.

Data set [1] relates to splenic lymphocytes forming lytic antibodies to the SRBC. Briefly: Antibody producing cell development in the mouse (PFC test), plaque forming cells to SRBC. Type of data set: in vivo. To be noted: for percent change from control at 1 mg/kg/day: Mus musculus, Splenic lymphocyte, sc, 144 h, Test A, 1.0 mg/kg/day s.c., 6 days. The protocol:
These methods permit the quantitation of the number of splenic lymphocytes forming lytic antibodies to the SRBC and the distinction between IgM and IgG producing cells.
The intravenous injection of SRBC (5 x 10⁷) in 0.2 ml i.v. served as the primary immunization antigen source in the mouse studies. The mice in these studies were female C57 black of ca 20 grams body weight. All animals were pretreated with the respective compounds for one day prior to the SRBC treatment and daily treated thereafter at 11.00 h for a total of 6 days. The spleens were removed for the determination of PFC numbers to the SRBC antigen.
The spleen cells were suspended in Hepes-buffered Balanced Salt Solution (HBSS), washed once, and resuspended in a volume adjusted according to the expected number of plaque forming cells. The direct quantitiation of IgM-PFC was performed by plaquing 0.1 ml of the diluted splenic cells with 0.025 ml of SRBC (30%), 0.3 ml Agar (0.5% in HBSS), and 0.025 ml complement (guinea pig serum) and plated on Petri dishes. An indirect method of IgG-PFC quantitation was performed with a monoclonal antibody to the IgM (1:4 dilution) plus an anti-gama polyspecific antiserum (1:800) to permit complement fixation. The splenic lymphocytes from each mouse spleen were plated to quantitate IgM- and IgG-PFC in duplicate. All plates were incubated for 4 hours at 37°C and then stored overnight in humidified chambers at 4°C. Plaques were counted by hand with the use of a plaque counter.

The nature of data set [2]: Acute toxicity (LD50) in the mouse. The following applies: in vivo. An excerpt: (§1) Toxicity data for some of the comounds of the invention have been published. Such data may be determined by routine experimentation. TOXICITY DATA for representative compounds NTEL = No toxic effect level.
Data set [3] can be described thus: No toxic effect level (NTEL), repeated oral dosing in rats. To be noted: rat, in vivo, 4 weeks, p.o.
Description: as §1

The test system of data set [4] is basal serum prolactin levels. Briefly: Lowering basal serum prolactin levels in the male rat (prolactin secretion inhibition). The following applies: lowering basal serum prolactin levels, male rat, after 4 hours; read-out: ID50 after 4 hours. The class given is in vivo. The text has this:
Many of the above mentioned compounds are published as prolactin secretion inhibitors, some of which are extremely potent and have long lasting activity. The potency of the compounds as prolactin secretion inhibitors can be determined in standard tests, e.g. by lowering basal serum prolactin levels in the male rat.
Results with representative compounds include:-

The subject of data set [5] is grafted neonatal heart tissue. The data set can be described thus: Grafting of neonatal heart tissue into ears of mice, graft survival with co-administered cyclosporine. To be noted: 0.05 mg/kg/day s.c. with cyclosporine 18 mg/kg/day s.c.; group of 10 animals. Type of data set: in vivo, mouse. The text has this: In this in-vivo test the rejection time of grafted neonatal heart tissue was increased by the compounds of the invention.
In one method a small incision was made at the base of the ear of a C 57 BL mouse (H-2^b). Blunt or fine tweezers were used to loosen the dorsal layer of skin from the cartilaginous layer in order to form a pocket. One half of a heart taken from 1 to 2 day old Balb/c mouse (H-2^d) was then inserted in the pocket. At 6 days post grafting and every week thereafter, the heart graft survival was monitored with microelectrodes placed on each side of the graft. A dynograft recorded was used to record electrical activity emanating from the graft. The end point of graft survival was taken as the time when the electrical activity was lost. Untreated mice rejected the implant after 8 1/2 days.
In this model effective immunosuppression was considered to have occurred if the time to rejection was increased to at least 17 days. […] With the compound A at 0.05 mg/kg/day, s.c.), 50 per cent of the heart allografts in a group of 10 animals were active on day 17.

Data set [6] concerns Local graft versus host (GvH). The data set can be described thus: Local graft versus host (GvH) reaction in the rat, lymph node weight. Type of data set: in vivo. To be noted: 0.01 mg/kg/day. The protocol: Spleen cells (ca 1 x 10⁷) are taken from 6 week old Wistar/Furth/(W/F) rats and are injected into the left hind paw of female (F 344 x WF) F1 rats weighing about 100 g. The rats had been treated daily with the compound from 7 days before the injection and are treated daily for 3 days thereafter. The difference in weight between the left and right lymph nodes is taken as the parameter for evaluating the reaction.

[7] abbreviates: combination: 36 mg/kg/day s.c. of Cyclosporine with 0.1 mg/kg/day of compound A.

With `CCCN1CC(NS(=O)(=O)N(CC)CC)CC2Cc3c(O)cccc3CC21` (centres unmarked) [Compound A], the percent change from control at 1 mg/kg/day was -71.6% in data set [1] (read-out: IgG % of control) and -55.4% in data set [1] (read-out: IgM % of control). Besides, the “reduction of IgG titre” value in data set [1] (setting [7]) was determined as 79.1%. Besides, in data set [1] (setting [7]), the “reduction of IgM titre” value was 62.6%. In data set [2] (iv, over 7 days, read-out: acute LD₅₀ (mouse) i.v.), the LD50 at 168 h is 17 mg/kg. The LD50 at 336 h in data set [2] (po, over 14 days, read-out: acute LD₅₀ (mouse) p.o.) was found to be 357 mg/kg. Besides, the no-observed-adverse-effect level (NOAEL) at 672 h in data set [3] was in the range of 0.2 to 0.57 mg/kg/day. Further, the ED50 in data set [4] was 0.03 mg/kg. For the same molecule, in data set [5], the “heart allografts active on day 17” value worked out at 50 per cent. The Weight lymph node entry in data set [6] (control ca 63 mg) is “ca 50 mg”. Further, the “Percentage Difference” value in data set [6] (versus control ca 63 mg) was -21%.

For the origin of these results see patent EP0231151A2, “Immunosuppressant agents” (priority 1986, dated 1987).
